Values joined by “and” are separate entries in the source; they are usually repeats but may differ in a detail not shown here. Equal values may be shown once.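 Tested at 5 concentrations; 48 h exposure; 96-well plates; endpoints linearly interpolated, else capped at highest concentration. GI50: concentration for 50% inhibition of growth. TGI: total growth inhibition.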
Key:
Experiment in all cases: DTP human tumour cell line panel, 48 h
[1] = tested on: BT-549 breast
[2] = tested on: HCT-116 colon
[3] = tested on: HL-60(TB) leukemia
[4] = tested on: HT29 colon
[5] = tested on: IGROV1 ovarian
[6] = tested on: MDA-MB-231 breast
[7] = tested on: NCI-H460 lung
[8] = tested on: NCI/ADR-RES ovarian
[9] = tested on: RXF 393 renal
[10] = tested on: SK-OV-3 ovarian
[11] = tested on: UACC-257 melanoma
[12] = tested on: M19-MEL melanoma

Compound	TGI [1] [µM]	TGI [2]	TGI [3]	TGI [4]	TGI [5]	TGI [6] [µM]	TGI [7]	TGI [8] [µM]	TGI [9]	TGI [10]	TGI [11]	TGI [12]	GI50 [3]	GI50 [12]	GI50 [9]	GI50 [11]
CC(=O)OCC1=C(C)C(OC(=O)C(OC(C)=O)[C@@H](NC(=O)c2ccccc2)c2ccccc2)CCC1(C)C (some centres undefined)	> 100	> 100 µM	> 100 µM	> 100 µM	> 100 µM	> 100	> 100 µM	> 100	> 100 µM	> 100 µM	> 100 µM					
O=C(CSC(=S)N1CCOCC1)Nc1nc2c(s1)CCCC2		> 100 µM	> 100 µM	> 100 µM	> 100 µM		> 100 µM			> 100 µM	> 100 µM	> 100 µM				
CN(C)Cc1cc(N=Nc2ccccc2)cc(CN(C)C)c1O	> 100	> 100 µM	66.9 µM	> 100 µM	> 100 µM	> 100	> 100 µM	> 100	> 100 µM	> 100 µM	> 100 µM					
CC(=O)Nc1ccc2c3c(cc(O)c2c1)N(C(=O)CCCCC(=O)Nc1ccc2c4c(cc(O)c2c1)N(C(=O)OC(C)(C)C)CC4CCl)CC3CCl (centres undefined)	> 27.1	> 33.2 µM	12.4 µM	> 37.9 µM	> 32.8 µM	26.8	> 33.8 µM	> 79.7	3.26 µM	> 85.3 µM	5.16 µM					
O=[N+]([O-])c1cccnc1NCC1(CO)CC(Cc2ccccc2)C1 (centres undefined)	> 100	> 100 µM	> 100 µM	> 100 µM	> 100 µM	> 100	> 100 µM	> 100	> 100 µM	> 100 µM	> 100 µM					
Cc1c(NC(=S)Nc2ccc(Cl)cc2)c(=O)n(-c2ccccc2)n1C	> 100	> 100 µM	> 100 µM	> 100 µM	> 100 µM	> 100	> 100 µM	> 100	> 100 µM	> 100 µM	> 100 µM					
COc1cccc(NC(=O)CC(=O)N2N=C(C)C(N=Nc3ccc(S(=O)(=O)c4ccc(N=NC5C(=O)N(C(=O)CC(=O)Nc6cccc(OC)c6)N=C5C)cc4)cc3)C2=O)c1 (centres undefined)	> 100	> 100 µM	> 100 µM	> 100 µM	> 100 µM	> 100	> 100 µM	> 100	> 100 µM	> 100 µM	> 100 µM					
CN(C)c1ccc(/C=C/C=C(/C#N)c2ccccc2)cc1	> 100	> 77 µM	33 µM	40.6 µM	> 100 µM	> 93.8	83.7 µM	35.3	> 79.5 µM	> 74.9 µM	> 100 µM					
Cc1ccc(Nc2cc(=O)[nH]c(=S)[nH]2)cc1	> 100	> 100 µM	> 100 µM	> 100 µM	> 100 µM	> 100	> 100 µM	> 100	> 100 µM	> 100 µM	> 100 µM					
CC(C)=CCSC1CC2C(CC1(C)O)C2(C)C (centres undefined)		33.5 µM and 28.7 µM	> 100 µM and 19.7 µM	29 µM and 28.2 µM	31.3 µM and 33 µM		33.7 µM and 27.2 µM		11.2 µM and 28.4 µM	28.2 µM and 29.7 µM	32.6 µM and 20.6 µM	3.31 µM and 19.3 µM	34.1 µM and 3.82 µM	1.86 µM and 4.26 µM	2.01 µM and 14.9 µM	18.3 µM and 7.13 µM
Clc1ccc(C2NN=C3c4ccccc4OCC32)cc1 (centres undefined)	79.3	> 36.4 µM	11.9 µM	12.2 µM	22.3 µM	6.91	25.8 µM	6.14	41.3 µM	> 100 µM	87.4 µM					
CN(CCc1ccc(N)cc1)[C@H]1CCCC[C@H]1N1CCCC1	> 100	> 100 µM	> 100 µM	> 100 µM	> 100 µM	> 100	> 100 µM	> 100	> 100 µM	> 100 µM	> 100 µM					
Cc1ccc2c(n1)C(=O)c1ccccc1C2=O	89	61.8 µM	45.7 µM	> 87.9 µM	73.4 µM	75.5	> 69 µM	60.1	87.2 µM	> 100 µM	37.9 µM					
O=C(N/N=C\c1ccc2ccccc2c1)Nc1ccc([N+](=O)[O-])cc1	> 77.3	> 59 µM	> 100 µM	> 75.6 µM	> 100 µM	> 100	> 65.1 µM	> 70.1	> 79.2 µM	> 59.8 µM	> 75 µM					
COCCOCCOC1=C(Cl)C(=O)c2c(O)ccc(O)c2C1=O	4.01	2.46 µM	1.89 µM	8.73 µM	7.37 µM	4.12	29.8 µM	9.14	2.99 µM	33.3 µM	4.04 µM					
CC(=O)NC1=C(C)C(=O)c2c(nc3n2CCC3O)C1=N (centres undefined)		6.88 µM	> 100 µM	33.5 µM	39.3 µM		51.3 µM			97.1 µM	13.2 µM	4.94 µM				
Cn1c2ccccc2c(=NNc2ccc(C(=O)O)cc2)c2ccccc21	74.9	34.5 µM	48.6 µM	32.3 µM	95 µM	50.1	43.5 µM	57.9	38 µM	56.7 µM	57 µM					
C=CC[C@H]1[C@H](O[Si](C)(C)C(C)(C)C)C=CC(=O)[C@@H]1CC(=O)N(Cc1ccccc1)Cc1ccccc1	51.6	54.5 µM	36.5 µM	29.2 µM	> 100 µM	41.2	> 100 µM	80.6	27.4 µM	> 100 µM	65.8 µM					
